Results on six compounds are retold here after US8404690B2, “Piperazine-2-carboxamide derivatives” (Merck Serono SA, priority 2003, dated 2013).

In general, IC50 refers to the concentration at which inhibition is half-maximal. The term Ki denotes a dissociation constant, usually derived from enzyme kinetics or from competition with a known ligand. Usually melting point stands for the temperature, or range, at which the solid turns liquid. As usually defined, the EC50 is the concentration that produces a half-maximal response.

Data set [1] deals with Spontaneous uterine contractions in late-term pregnant rats. Kind of data set: In vivo assay: reduction of spontaneous uterine contractions in late-term pregnant rats. Set-up: species or system rat. The note with it: i.v. route (infusion over 10 minutes), dose of 3 mg/kg/min, anesthetised late-term pregnant Sprague Dawley rats, AUC of intra-luminal uterine pressure vs basal. An excerpt: 3) In Vivo Assay: Reduction of Uterine Contractile Activity in Rats
Spontaneous Uterine Contractions in Late-Term Pregnant Rats:
Late-term pregnant (19-21 days of gestation) Sprague Dawley female rats (Charles River, Calco, Italy) weighing 350-400 g were anesthetised with urethane (1.05 g/kg, i.p.) and placed on a homeothermic operating table. The trachea was isolated and cannulated with a suitable polyethylene (PE) tubing. A midline incision at the hypogastrium level was made, one pregnant uterine horn exposed and its tubal end closed (near the ovary) by a ligature with surgical silk. […]
The spontaneous contractile response of the uterus was quantified by evaluating the area under the curve (AUC) of the changes in the intra-luminal uterine pressure over time (by Chart V4.04 for Windows software, PowerLab AD Instruments, Castle Hill, Australia). The effect of the test compound on the spontaneous uterine contraction was evaluated as the percent variation of the AUC calculated in a 10-min interval following the administration of each dose of test compound as compared to the AUC in a 10-min interval before the administration of the first dose of test compound (basal value). When possible, a dose-response curve (of peak effect) was plotted and the relative ED50 value calculated (by S-Plus 2000 v. 4.6 statistical software, Mathsoft, Inc. Seattle, Wash., USA).

In data set [2] the target is T1, human Prostaglandin F2α receptor (Homo sapiens, UniProt P43088). Kind of data set: In vitro functional assay 2: inhibition of Prostaglandin F2α induced Ca2+-mobilization in HEK EBNA cells (FLIPR). Format: cell-based. Also noted: expressed in transfected cells; host or cells: HEK EBNA cells. The note with it: HEK EBNA cells expressing the human Prostaglandin F2α receptor. Here is the method:
2) In Vitro Functional Assay 2: Inhibition of Prostaglandin F2α Induced Ca^2+-Mobilization in HEK/EBNA-Cell Expressing the Prostaglandin F2α Receptor, as Measured by FLIPR® (Fluorimetric Imaging Plate Reader).
HEK EBNA cells were seeded at 60000 cells/well in a Poly-L-Lysine precoated black/white bottom 96 well plate. 24 hours later cells were loaded with […] Fluo-4 in DMEM-F12 without fetal calf serum for 1-2 hours at 37° C. For Prostaglandin F2α dose response or agonist activity measurement of compounds—after a wash with FLIPR buffer (10 mM Hepes, 145 mM NaCl, 5 mM KCl, 1 mM MgCl2, 10 mM glucose, pH 7.4)—cells were stimulated with increasing concentration of Prostaglandin F2α or test compounds of formulae (I), (II) and (III).
Calcium mobilisation was then measured on the FLIPR for 4 min. For IC50 determination of the molecules, increasing concentrations of test compounds were added to the cells 30 min prior to the washing step. After the wash with FLIPR buffer, increasing concentrations of test compounds were added to the cells in FLIPR buffer and calcium mobilisation was measured for 1 min. Then the cells were stimulated with a concentration of 2 times the EC50 of Prostaglandin F2α and calcium mobilisation was measured for 4 min.

For data set [3], the target named is T1, human Prostaglandin F2α receptor. Put plainly: In vitro competition binding assay with Scintillation Proximity Assay (SPA). The note with it: Prostaglandin F2α as radioligand, membranes of HEK 293 EBNA cells, read-out: Binding affinity for human Prostaglandin F2α receptor Ki. Set-up: Human Prostaglandin F2α receptor (full-length cDNA) was subcloned into the pCEP4 (Invitrogen) vector; expressed in transfected cells; host or cells: HEK 293 EBNA cells (membrane preparation). An excerpt:
In vitro competition binding assay with Scintillating Proximity Assay (SPA) (see Pharmaceutical Manufacturing International, 1992, p. 49-53 by Cook, N. D. et al)
This assay allows to determine the binding affinity of the test compounds of formula (II) for the human Prostaglandin F2α receptor
Human Prostaglandin F2α receptor (full-length cDNA) was subcloned into the pCEP4 (Invitrogen) vector and transfected together with the hygromycin resistance gene into HEK 293 EBNA cells by Calcium-phosphate co-precipitation method. Antibiotic resistant cells were grown under constant selection pressure in DMEM/F-12 medium supplemented with 2% fetal calf serum, 4 mM L-Glutamine and 8 ml/l Insulin-Transferrin-Selenium-mix (all Invitrogen) and 300 μg/ml hygromycin at 37° C. in a humidified atmosphere of 5% CO2 in air. At 48 h before harvesting, receptor expression was enhanced by adding 5 mM of Na-butyrate. Cells were washed twice with phosphate buffer saline, harvested and pelleted by centrifugation.
Cell pellet was lysed by Dounce homogenisation in 250 mM sucrose, 25 mM Tris-HCl pH 7.5, 10 mM MgCl2, 1 mM EDTA containing proteases inhibitors according to the manufacturer (Boehringer Mannheim) at 4° C. The lysate was centrifuged at 1000 g, 4° C. for 10 min and the supernatant was centrifuged at 160000 g, 4° C. for 60 min. […]
In vitro competition binding with Scintillation proximity assay (SPA) was performed in Corning NBS 96 wells plates. Briefly, 100 μl of binding buffer containing 15 to 30 μg of purified membranes, 4 mg/ml of wheat-germ agglutinin (WGA) SPA beads and 1 to 2 nM of ^3H PGF2-alpha (determined by Scatchard analysis) in 1% DMSO was incubated for 2 hours at room temperature. Non-specific binding was determined in the presence of 1 μM of non-radioactive Prostaglandin F2α. […] The radioactivity was counted on a Microbeta plate counter and the binding data were analysed using the iterative, non-linear, curve-fitting program, “Prism” (GraphPad Software, Inc).
In general terms: SPA uses beads or plates that emit light when radiolabelled molecules are held near them.

Data set [4] deals with T2, human Prostaglandin F2α receptor (hFP) (Homo sapiens, UniProt P43088).
T2 construct: expressed in transfected cells; host or cells: 293-EBNA cells
Put plainly: In vitro functional assay 1: inhibition of Prostaglandin F2α induced IP3 synthesis in HEK/EBNA cells. In kind it is cell-based. The note with it: tested on human Prostaglandin F2α; 30 nM PGF2α stimulation; read-out: EC50 value, antagonism of Prostaglandin F2α-induced IP3-synthesis. An excerpt: 1) In Vitro Functional Assay 1: Inhibition of Prostaglandin F2α Induced IP3 (Inositol Triphosphate) Synthesis in HEK/EBNA-Cells Expressing the Prostaglandin F2α Receptor
The interaction of Prostaglandin F2α with its receptor leads to IP3 synthesis, a second messenger for Ca^2+ release from sarcoplasmatic reticulum, involved in the process triggering uterine contractions. The present assay described hereinafter can be used to show the inhibition of the Prostaglandin F2α/Prostaglandin F2α receptor mediated IP3 synthesis by test compounds of formula (I).
293-EBNA cells and pCEP4 vector were purchased from Invitrogen; Fetal Bovine Serum from Cansera; Hygromycin B from Roche Molecular Biochemicals; DMEM-F12 medium, L-Glutamine from Life Technologies Inc.; [^3H] Inositol from Perkin Elmer Life Sciences; Prostaglandin F2α (PGF2α) from Sigma, AG1-X8 chromatography columns from BioRad, 96 well black/white plates from Corning Inc. […]
In the course of the three above mentioned experiments, the reaction was stopped by addition of 1 ml of stop solution (2.4% perchloric acid) for 10 min. […] The IP3 to be quantified were eluted with 3 ml elution buffer (1M ammonium formate, 0.1 M formic acid) and radioactivity was counted on a Beckman LS6000TA scintillation counter to measure the amount of phosphorylated [^3H] inositol.

T1 sequence (P43088 whole entry): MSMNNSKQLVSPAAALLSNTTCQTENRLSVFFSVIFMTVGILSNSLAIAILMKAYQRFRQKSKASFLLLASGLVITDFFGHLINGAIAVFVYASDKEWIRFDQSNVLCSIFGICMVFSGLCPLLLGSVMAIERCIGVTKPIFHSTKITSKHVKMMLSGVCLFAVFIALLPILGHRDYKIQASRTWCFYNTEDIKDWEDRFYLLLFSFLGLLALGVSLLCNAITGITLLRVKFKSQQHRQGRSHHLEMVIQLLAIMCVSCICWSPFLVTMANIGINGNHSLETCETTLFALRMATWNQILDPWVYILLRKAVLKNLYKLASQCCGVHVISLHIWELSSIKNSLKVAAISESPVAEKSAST
T2 sequence (P43088 whole entry): as above

Turning to `C=CCNC(=O)c1cc(C(C)(C)C)ccc1S(=O)(=O)c1cccc2cccnc12` [[5-(tert-butyl)-2-(8-quinolylsulfonyl)phenyl]-N-prop-2-enylcarboxamide], the “inhibition of uterine contractions” value in data set [1] was found to be 56.1%.
In data set [2], `CN(CC(O)c1ccccc1)C(=O)[C@H]1CN(C(=O)Nc2ccc(Oc3ccccc3)cc2)CCN1S(=O)(=O)c1ccccc1` (stereo partly drawn) [Example 16, (3R)—N˜3˜-(2-hydroxy-2-phenylethyl)-N˜3˜-methyl-N˜1˜-(4-phenoxy-phenyl)-4-(phenylsulfonyl)piperazine-1,3-dicarboxamide] yielded an IC50 of 4.75 µM. Further, in data set [3], the Ki amounted to 1.15 µM.
As to `C=CCNC(=O)[C@H]1CN(S(=O)(=O)c2ccc(C(C)(C)C)cc2)CCN1S(=O)(=O)c1cccc2cccnc12.Cl`, the melting point lay within 126 to 129 °C.
Turning to `C=CCNC(=O)[C@@H]1CN(S(=O)(=O)c2ccc(C(C)(C)C)cc2)CCN1S(=O)(=O)c1cccc2cccnc12` [Example 8, (2S)-4-[(4-tert-butylphenyl)sulfonyl]-N-Drop-2-enyl-1-(quinolin-8-ylsulfonyl)piperazine-2-carboxamide], the EC50 in data set [4] was determined as 0.024 µM.
On to “(3S)-4-(3-chlorobenzoyl)-N˜1˜-(3,4-dichlorophenyl)-N˜3˜-[(1S)-2,3-dihydro-1H-inden-1-yl]piperazine-1,3-dicarboxamide [Example 21]”, for which, in data set [2], half-maximal inhibition (IC50) required 0.495 µM. Besides, the inhibition constant (Ki) in data set [3] was found to be 0.816 µM.
As to `C=CCNC(=O)[C@@H]1CN(S(=O)(=O)c2ccc(C(C)(C)C)cc2)CCN1S(=O)(=O)c1cccc2cccnc12` [drawing 66, (2S)-4-[(4-tert-butylphenyl)-sulfonyl]-N-prop-2-enyl-1-(quinolin-8-yl-sulfonyl)piperazine-2-carboxamide], in data set [3], the Ki worked out at 0.125 µM.
